Results taken from US8703749B2, “Compositions and methods for treating Friedreich's Ataxia” (priority 2009, dated 2014).
Where a SMILES comes first, the peptide text is derived from it. The star is where a group is joined. Cbz = O=C(OCc1ccccc1)*

Columns and labels:
frataxin [1] = target: T1, frataxin (Homo sapiens, UniProt Q16595); assay: Frataxin ubiquitination in HEK-293 cells co-transfected with HA-Ub and frataxin 1-210 (IP/WB); format: cell-based; set-up: HEK-293 cells transiently transfected with frataxin^1-210 and HA-tagged ubiquitin (HA-Ub); expressed in transfected cells; host or cells: HEK-293
T1 sequence (Q16595 42-210): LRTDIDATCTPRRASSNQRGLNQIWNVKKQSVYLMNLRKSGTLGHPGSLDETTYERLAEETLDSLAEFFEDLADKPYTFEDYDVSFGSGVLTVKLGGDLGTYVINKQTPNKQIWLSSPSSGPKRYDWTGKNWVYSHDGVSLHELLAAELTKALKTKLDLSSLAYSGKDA
Method: (§1) Human embryonic kidney HEK-293 cells and Hela cells were maintained in DMEM supplemented with 10% FBS. HEK-293 were transfected with the calcium/phosphate precipitation method, using 20 μg total DNA (10 μg pIRES-frataxin and 10 μg HA-Ub, or corresponding empty vectors) on 10 cm dishes. Hela cells were transfected using Lipofectamine 2000 reagents (Invitrogen), according to manufacturer's instructions. Where indicated, the day after transfection, cells were treated for 16 h with 10 μM proteasome inhibitors, MG132 or Lactacystin, or 50 ng/ml DUB inhibitor Ubiquitin-Aldehyde. Flp-In-HEK-293 cells (Invitrogen) are HEK-293 variants allowing the stable and isogenic integration and expression of a transfected gene. Flp-In-HEK-293 cells were maintained in DMEM supplemented with 10% FBS and transfected with the calcium/phosphate precipitation method. Briefly, cells were plated on 10 cm dishes and transfected with 10 μg total DNA. The HEK-293 clone stably expressing frataxin^1-210 was previously described (4). […]
(§2) Cell extracts were prepared in modified RIPA buffer (10 mM sodium phosphate pH7.2, 150 mM NaCl, 1% Na deoxycholate, 0.1% SDS, 1% Np40, 2 mM EDTA) or IP buffer (50 mM Tris-HCl, pH 7.5, 150 mM NaCl, 1% Nonidet P-40, 5 mM EDTA, 5 mM EGTA) supplemented with Complete protease inhibitor cocktail and 2 mM N-Ethylmaleimide (NEM). For immunoblotting, 100 μg of protein extract were separated on 12% SDS-PAGE, blotted onto nitrocellulose membrane and detected with specific antibodies. […] Immunocomplexes were then resolved and analysed by SDS-PAGE. […]
FIG. 2A illustrates HEK-293 cells transiently transfected with frataxin^1-210 and HA-tagged ubiquitin (HA-Ub) (where indicated) were treated with 10 μM MG132 (MG) for 16 h. […] Total cell extracts (lanes 1-4) or anti-HA immunoprecipitates (lanes 5-8) were analyzed by WB with anti-frataxin antibody. […]
Formula III prevents frataxin ubiquitination. […] Total cell extracts (upper panel) or anti-HA immunoprecipitated proteins (lower panel) were detected with anti-frataxin antibody.

frataxin [2] = target: T1, frataxin; assay: Frataxin accumulation in HEK-293 Flp-In cells stably expressing frataxin 1-210 (WB, FACS); format: cell-based; set-up: HEK-293 Flp-In cells stably transfected with frataxin^1-210; expressed in transfected cells; details: HEK-293 Flp-In frataxin 1-210
Method: Human embryonic kidney HEK-293 cells and Hela cells were maintained in DMEM supplemented with 10% FBS. HEK-293 were transfected with the calcium/phosphate precipitation method, using 20 μg total DNA (10 μg pIRES-frataxin and 10 μg HA-Ub, or corresponding empty vectors) on 10 cm dishes. Hela cells were transfected using Lipofectamine 2000 reagents (Invitrogen), according to manufacturer's instructions. Where indicated, the day after transfection, cells were treated for 16 h with 10 μM proteasome inhibitors, MG132 or Lactacystin, or 50 ng/ml DUB inhibitor Ubiquitin-Aldehyde. Flp-In-HEK-293 cells (Invitrogen) are HEK-293 variants allowing the stable and isogenic integration and expression of a transfected gene. Flp-In-HEK-293 cells were maintained in DMEM supplemented with 10% FBS and transfected with the calcium/phosphate precipitation method. Briefly, cells were plated on 10 cm dishes and transfected with 10 μg total DNA. The HEK-293 clone stably expressing frataxin^1-210 was previously described (4). The HEK-293 clone stably expressing frataxin^K147R was obtained from cultures in selection medium containing 100 μg/ml hygromycin B (Invitrogen). FRDA lymphoblasts GM15850, GM16798 and […], as well control lymphoblasts GM15851, GM16241 and GM16215, were maintained in RPMI supplemented with 15% FBS. Treatments with specific ubiquitin-competing molecules were performed in 20% FBS containing medium. FRDA fibroblasts GM03816 were maintained in DMEM supplemented with 15% FBS.
(§3) Cell extracts were prepared in modified RIPA buffer (10 mM sodium phosphate pH7.2, 150 mM NaCl, 1% Na deoxycholate, 0.1% SDS, 1% Np40, 2 mM EDTA) or IP buffer (50 mM Tris-HCl, pH 7.5, 150 mM NaCl, 1% Nonidet P-40, 5 mM EDTA, 5 mM EGTA) supplemented with Complete protease inhibitor cocktail and 2 mM N-Ethylmaleimide (NEM). For immunoblotting, 100 μg of protein extract were separated on 12% SDS-PAGE, blotted onto nitrocellulose membrane and detected with specific antibodies. For in vivo detection of ubiquitin-conjugates […] and 50 ng/ml Ubiquitin-Aldehyde were added to the lysis buffer. For immunoprecipitation, 5 mg of total protein extract prepared as above were incubated for 1-2 h at 4° C. with specific antibodies, previously conjugated to Protein G-sepharose (GE Healthcare). Immunocomplexes were then resolved and analysed by SDS-PAGE. […] Densitometric analysis was performed using ImageJ software.
Cells were collected after the indicated treatments and fixed for 20 minutes in 4% paraformaldehyde at room temperature. Cells were then permeabilized and blocked in a blocking solution (3% FBS in PBS) containing 0.2% Triton, for 1 hour at room temperature. Cells were then incubated overnight at 4° C. with anti-frataxin monoclonal antibody (MAB-10485, Immunological Science) or anti-Bcl2 monoclonal antibody (sc-509, Santa Cruz) diluted 1:200 in blocking solution. Cells were then washed 3 times in PBS and incubated for 1 hour at room temperature with FITC-conjugated goat anti-mouse IgG/IgM (BD Bioscience Pharmingen) diluted 1:200 in blocking solution. After washing 3 times with PBS cells were analyzed by flow cytometry (Becton Dickinson).
HEK-293 Flp-In cells stably transfected with frataxin^1-210 were treated for the indicated times with 10 μM MG132. Total cell extracts were blotted as in A. One representative experiment out of four performed with similar results is shown in FIG. 18.
Formula III induces frataxin precursor accumulation. HEK-293 Flp-In cells stably expressing frataxin^1-210 were treated for the indicated days with 20 μM of Formula III or 10 μM MG132. Total cell extracts were resolved on SDS-PAGE and analyzed with anti-frataxin antibody, or anti-tubulin, as a loading control.
Formula III induces mature frataxin accumulation. HEK-293 Flp-In cells stably expressing frataxin^1-210 were treated and analyzed as in B. One representative experiment out of three performed with similar results is shown FIG. 5C. […]

frataxin [3] = target: T1, frataxin; assay: Frataxin accumulation in FRDA lymphoblasts (FACS, SDS-PAGE/western blot); format: cell-based; details: FRDA lymphoblasts GM15850; 50 μM; 6 days
Method: as §1, §2
Cells were collected after the indicated treatments and fixed for 20 minutes in 4% paraformaldehyde at room temperature. […] After washing 3 times with PBS cells were analyzed by flow cytometry (Becton Dickinson).
FRDA lymphoblasts GM15850 were cultured for 6 days in the presence of 50 μM Formula IV or Formula VI. Cells were then fixed, stained with anti-frataxin antibody or anti-Bcl2, as a control, and analyzed by flow cytometry. […]

FRDA cells = assay: Tolerability by FRDA cells; format: cell-based, human; details: among the different ubiquitin-competing molecules
frataxin precursor = assay: Cycloheximide chase of frataxin precursor degradation in HEK-293 Flp-In cells; format: cell-based, human; details: 100 μg/ml cycloheximide, 10 μM MG132
Method: as §3
HEK-293 Flp-In cells stably transfected with frataxin^1-210 (FIG. 1E) or empty vector (FIG. 1G) were treated for the indicated times with 100 μg/ml cycloheximide (CHX) in the presence or absence of 10 μM MG132 (MG). […] One representative experiment out of five performed with similar results is shown. Pre: precursor, tub: tubulin.

frataxin [4] = assay: Frataxin precursor accumulation in HeLa cells transiently transfected with frataxin 1-210 (immunoblot); format: cell-based, human; details: 10 μM proteasome inhibitor, 18 h
Method: as §1, with “Where indicated, the day after transfection, cells were treated for 16 h with 10 μM proteasome inhibitors, MG132 or Lactacystin, or 50 ng/ml DUB inhibitor Ubiquitin-Aldehyde.” left out
as §2

SMILES: O=[N+]([O-])c1cc(/C=N/NS(=O)(=O)c2ccc(F)cc2)c(O)c([N+](=O)[O-])c1 [Formula III]
- ubiquitination of frataxin 1-210 (frataxin [1]; HEK-293 co-transfected with HA-Ub and frataxin 1-210, 20 μM and 50 μM, revealed after 48 h): efficiently prevents the ubiquitination
- accumulation of the frataxin precursor (frataxin [2]; 20 μM, days, WB): substantial accumulation
- accumulation of mature frataxin (frataxin [2]; 20 μM, over a longer time period, WB): substantial accumulation

SMILES: O=[N+]([O-])c1cccc(/C=N/NS(=O)(=O)c2ccc(F)cc2)c1O [Formula VI]
- frataxin accumulation by WB and FACS analysis (frataxin [2]; 100 μM, 18 hours): effective in inducing frataxin accumulation
- frataxin accumulation by FACS analysis (frataxin [3]): discrete frataxin accumulation detectable in all cells
- tolerability by FRDA cells (FRDA cells): best tolerated

SMILES: CC(C)C[C@@H](C=O)NC(=O)[C@H](CC(C)C)NC(=O)[C@H](CC(C)C)NC(=O)OCc1ccccc1 [MG132] (Cbz-Leu-Leu-Leu-aldehyde)
- accumulation of mono-ubiquitinated frataxin (frataxin [1]; HEK-293 co-transfected with frataxin 1-210 and HA-Ub, 10 μM MG132, 16 h): allows the accumulation and detection of mono-ubiquitinated frataxin
- accumulation of poly-ubiquitinated frataxin (frataxin [1]; HEK-293 co-transfected with frataxin 1-210 and HA-Ub, 10 μM MG132, 16 h, frataxin IP, anti-Ub WB): allows the accumulation and detection also of poly-ubiquitinated frataxin
- degradation of the endogenous frataxin precursor (frataxin precursor; HEK-293 Flp-In empty vector): prevents the degradation
- time-dependent degradation of the frataxin precursor (frataxin precursor; HEK-293 Flp-In frataxin 1-210): blocked
- accumulation of frataxin precursor compared to untreated cells (frataxin [4]): significantly higher amounts of precursor
- accumulation of mature frataxin (frataxin [2]; 10 μM MG132, after 24 hrs): ~2.5 fold
- accumulation of the frataxin precursor (frataxin [2]; 10 μM MG132, after 24 hrs): > 15 fold

SMILES: CC(=O)N[C@@H](CSC(=O)[C@]1([C@@H](O)C(C)C)NC(=O)[C@H](C)[C@@H]1O)C(=O)O [lactacystin]
- accumulation of frataxin precursor compared to untreated cells (frataxin [4]): significantly higher amounts of precursor
